Assay type in all cases: cell-based
Assay [1] deals with T1, human GPR40 (Homo sapiens (Human), UniProt O14842). In words: FLIPR assay, agonist-induced calcium mobilization in GPR40/CHO NFAT BLA cells. The procedure:
(§1) Human and mouse GPR40 stable cell-lines were generated in CHO cells stably expressing NFAT BLA (Beta-lactamase). A human GPR40 stable cell-line was generated in HEK cells stably expressing the aequorin expressing reporter. The expression plasmids were transfected using lipofectamine (Life Technologies) following manufacturer's instructions. Stable cell-lines were generated following drug selection.
FLIPR (Fluorimetric Imaging Plate Reader, Molecular Devices) assays were performed to measure agonist-induced calcium mobilization of the stable clones. For the FLIPR assay, one day before assay, GPR40/CHO NFAT BLA cells were seeded into black-wall-clear-bottom 384-well plates (Costar) at 1.4×10e4 cells/20 μL medium/well. The cells were incubated with 20 μl/well of the assay buffer (HBSS, 0.1% BSA, 20 mM HEPES, 2.5 mM probenecid, pH 7.4) containing 8 μM fluo-4, AM, 0.08% pluronic acid at room temperature for 100 minutes. Fluorescence output was measured using FLIPR. Compounds were dissolved in DMSO and diluted to desired concentrations with assay buffer. 13.3 μL/well of compound solution was added.
A general note: A change in cytosolic calcium serves as a functional read-out for many receptors and channels.

Assay [2] has as its target T1, human GPR40. In words: Inositol Phosphate Turnover (IP1) Assay 2 in HEK cells stably expressing human GPR40. Conditions: compound acoustically transferred. The procedure:
as §1
(§2) The assay is performed in 384-well format. HEK cells stably expressing human GPR40 are plated at 15,000 cells per well in growth medium (DMEM/10% fetal calf serum). Cell plates are then incubated 16 hours at 37 degrees in a 5% CO2 incubator.
Measurement of Inositol Phosphate Turnover (IP1) is performed using the CisBio IP-One kit (Part number 62IPAPEB). After the 16 hour incubation, the cells are washed with HEPES buffer and 10 ul of stimulation buffer (prepared as described in the kit) is added to each well. In a separate plate, compounds are diluted in DMSO (400-fold over the final concentration in the assay well) and 25 nl is acoustically transferred to the appropriate well in the assay cell plate. The plates are then incubated for 60 minutes at 37 degrees. […] The plates are then read in a Perkin Elmer EnVision or equivalent reader able to measure FRET. […]

Assay [3] addresses T1, human GPR40. In words: Inositol Phosphate Turnover (IP1) Assay 1 in HEK cells stably expressing human GPR40. Conditions: compound transferred via pocket tip. On the procedure:
as §1, §2
Measurement of Inositol Phosphate Turnover (IP1) is performed using the CisBio IP-One kit (Part number 62IPAPEB). After the 16 hour incubation, the cells are washed with HEPES buffer and 10 ul of stimulation buffer (prepared as described in the kit) is added to each well. In a separate plate, compounds are diluted in DMSO (400-fold over the final concentration in the assay well) and 25 nl is transferred via pocket tip to the appropriate well in the assay cell plate. The plates are then incubated for 60 minutes at 37 degrees. 10 ul of detection buffer (also prepared as described in the IP-One kit) is added to each well and the plates are incubated for 60 minutes in the dark. The plates are then read in a Perkin Elmer EnVision or equivalent reader able to measure FRET. Fluorescent ratio of emission at 665 and 620 nm is then converted to IP1 concentration by back calculating from an IP1 standard curve prepared at the time of the assay.

Molecules are shown by their SMILES. Bounds are passed on as bounds.

T1 sequence (O14842 whole entry): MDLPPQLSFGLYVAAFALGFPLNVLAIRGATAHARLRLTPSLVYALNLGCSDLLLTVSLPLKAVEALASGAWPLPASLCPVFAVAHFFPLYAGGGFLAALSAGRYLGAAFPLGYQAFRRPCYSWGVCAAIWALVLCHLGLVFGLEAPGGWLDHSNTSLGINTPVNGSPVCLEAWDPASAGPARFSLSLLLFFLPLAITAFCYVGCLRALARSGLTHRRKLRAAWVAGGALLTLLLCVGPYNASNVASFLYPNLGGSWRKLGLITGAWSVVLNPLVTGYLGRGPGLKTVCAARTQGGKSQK

What is called EC50 is the midpoint of the concentration-response curve. Take `Cc1cccc(C)c1-c1cccc(C2Cc3cc(CCC(=O)O)ccc3O2)c1` (racemic) [Example 18]: in assay [1], the EC50 was determined as 1220 nM.

In assay [2], `COc1cc(-c2ccc(CC3Cc4ccc([C@H](C5CC5)[C@H](C)C(=O)O)cc4O3)c(F)c2)ccn1` (single isomer, unassigned) [Example 5] returned an EC50 of 35 nM.

For the compound `COc1cc(-c2ccc(CC3Cc4ccc([C@H](C5CC5)[C@H](C)C(=O)O)cc4O3)c(F)c2)ccn1` (single isomer, unassigned) [Example 6], a half-maximal effect in assay [2] (EC50) was put at 37 nM.

`COc1cc(C)c(-c2cccc(C3Cc4cc(CCC(=O)O)ccc4O3)c2)c(C)c1` (single isomer, unassigned) [Example 16]: the EC50 in assay [1] was 624 nM; in assay [3], 5870 nM.

Regarding `COc1cc(C)c(-c2cccc(C3Cc4cc(CCC(=O)O)ccc4O3)c2)c(C)c1` (single isomer, unassigned) [Example 17], the EC50 in assay [1] was 4320 nM; in assay [3] it was 3940 nM.

`COc1ccc(F)c(-c2ccc(-c3cc4ccc([C@H](C5CC5)[C@H](C)C(=O)O)cc4o3)cc2)c1` [Example 1, (2S,3R)-3-cyclopropyl-3-(2-(2′-fluoro-5′-methoxy-[1,1′-biphenyl]-4-yl)benzofuran-6-yl)-2-methylpropanoic acid] showed an EC50 in assay [3] of 66 nM.

`COc1ccc(F)c(-c2ccc(-c3cc4ccc([C@@H](CC(=O)O)C5CC5)cc4o3)nc2)c1` [Example 2] registered an EC50 in assay [3] of 215 nM.

Compound `COc1ccc(F)c(-c2ccc(C3Cc4ccc([C@H](C5CC5)[C@H](C)C(=O)O)cc4O3)cc2)c1` (stereo partly drawn) [Example 3, (2S,3R)-3-cyclopropyl-3-(2-(2′-fluoro-5′-methoxy-[1,1′-biphenyl]-4-yl)-2,3-dihydrobenzofuran-6-yl)-2-methylpropanoic acid] came in with an EC50 in assay [3] of 105 nM.

Compound `COc1ccc(F)c(-c2ccc(C3Cc4ccc([C@@H](CC(=O)O)C5CC5)cc4O3)nc2)c1` (some centres unmarked) [Example 4] registered an EC50 in assay [3] of 311 nM.

On to `Cc1cccc(C)c1-c1cccc(-c2cc3cc(CCC(=O)O)ccc3o2)c1` [Example 7, 3-(2-(2′,6′-dimethyl-[1,1′-biphenyl]-3-yl)benzofuran-5-yl)propanoic acid], for which the EC50 in assay [1] was determined as 203 nM; in assay [3], 3220 nM.

For the compound `O=C(O)CCc1ccc2oc(-c3ccc(C(F)(F)F)cc3)cc2c1` [Example 8], the EC50 in assay [1] came out at 20900 nM.

As to `COc1cc(C)c(-c2cccc(-c3cc4cc(CCC(=O)O)ccc4o3)c2)cc1F` [Example 9], the concentration for a half-maximal effect (EC50) came out at 815 nM in assay [1] and 3690 nM in assay [3].

For `COc1cc(C)c(-c2cccc(-c3cc4cc(CCC(=O)O)ccc4o3)c2)c(C)c1` [Example 10], the EC50 in assay [1] was determined as 540 nM.

With `COc1c(F)cc(-c2cccc(-c3cc4cc(CCC(=O)O)ccc4o3)c2)c(Cl)c1F` [Example 11], the concentration for a half-maximal effect (EC50) was determined as 1190 nM in assay [1] and 4580 nM in assay [3].

Regarding `Cc1cc(C)c(-c2cccc(-c3cc4cc(CCC(=O)O)ccc4o3)c2)c(F)c1` [Example 12], the EC50 in assay [1] is 716 nM; in assay [3], more than 10000 nM.

Regarding `Cc1cc(F)cc(C)c1-c1cccc(-c2cc3cc(CCC(=O)O)ccc3o2)c1` [Example 13], the EC50 in assay [1] was 306 nM; in assay [3], 6210 nM.

Turning to `O=C(O)CCc1ccc2oc(-c3cccc(-c4c(Cl)cccc4Cl)c3)cc2c1` [Example 14], the figures for the EC50 in assay [1] and in assay [3] were 726 nM and more than 10000 nM, respectively.

`COc1cc(C)c(-c2cccc(C3Cc4cc(CCC(=O)O)ccc4O3)c2)c(C)c1` (centres unmarked) [Example 15]: in assay [1], the EC50 worked out at 1490 nM.

The values are drawn from patent publication US10100042B2, “[5,6]—fused bicyclic antidiabetic compounds” (Merck Sharp & Dohme Corp., priority 2014, dated 2018).
